# Laboratory results taken from US4650785A, “Pharmaceutical composition having an excellent absorption property” (Ajinomoto Company Incoporated, priority 1982, dated 1987).
# Where a SMILES comes first, the peptide text is derived from it. [ ]: non-standard residue; d: D form. The star is where a group is joined. Cbz = O=C(OCc1ccccc1)*
# What was measured:
# [1] = tested on: Female ICR-CD-1 mice; assay: Oral administration of absorption promoter mixed with insulin to mice: decrease in blood glucose and elevation of blood insulin versus control; type: in vivo; design: Degree of Elevation of Blood Insulin: unit not given here
# Description: The absorption promoter samples listed in Table 2 were dissolved or suspended in 0.5% CMC-0.05M tris-HCl buffers (pH: 7.8) and the solutions or suspensions were mixed with aqueous insulin solution. Female ICR-CD-1 mice 5 to 7 weeks old were orally administered predetermined amounts of the mixtures. A predetermined duration later, the percent decrease in blood glucose and the degree of elevation of blood insulin as compared with the control group were measured. The symbol "Z" in the structural formulas in the table represents a benzyloxycarbonyl group. The upper figures in the columns "effectiveness" represent the percent decrease in blood glucose and the lower parenthesized figures indicate the degree of elevation in blood insulin.
# [2] = tested on: Female CD-1(ICR) Mice; assay: Toxicity studies of phenylalanine derivatives (LD50); type: in vivo
# From the text: Toxicity Studies of Phenylalanine Derivatives with Oral IN Potentiating Activity in Female CD-1(ICR) Mice are as follows:
# Phenylalanine derivatives were suspended in 0.5% CMC.
# [3] = Usefulness as medicine absorption promoter (statement, test not described)
# [4] = oral, mice, sample 6.0 mg/10 g with insulin 2.5 U/10 g body weight, 30 minutes, vs control group
# [5] = oral, mice, sample 6.0 mg/10 g with insulin 2.5 U/10 g body weight, 60 minutes, vs control group
# [6] = oral, mice, sample 12.5 mg/10 g with insulin 2.5 U/10 g body weight, 30 minutes, vs control group
# [7] = oral, mice, sample 12.5 mg/10 g with insulin 2.5 U/10 g body weight, 60 minutes, vs control group
# [8] = oral, mice, sample 3.0 mg/10 g with insulin 2.5 U/10 g body weight, 30 minutes, vs control group
# [9] = oral, mice, sample 3.0 mg/10 g with insulin 2.5 U/10 g body weight, 60 minutes, vs control group
# [10] = female CD-1(ICR) mice, suspended in 0.5% CMC
# [11] = oral, mice, sample 1.5 mg/10 g with insulin 2.5 U/10 g body weight, 30 minutes, vs control group
# [12] = oral, mice, sample 1.5 mg/10 g with insulin 2.5 U/10 g body weight, 60 minutes, vs control group
Compound,"Decrease in Blood Glucose (%) [1, 4] [%]","Degree of Elevation of Blood Insulin [1, 4]","Decrease in Blood Glucose (%) [1, 5] [%]","Degree of Elevation of Blood Insulin [1, 5]","Decrease in Blood Glucose (%) [1, 8] [%]","Decrease in Blood Glucose (%) [1, 9] [%]",further results
"O=C(COc1ccc2ccccc2c1)N[C@@H](Cc1ccccc1)C(=O)O [Sample S-12, N-[(2-naphthoxy)acetyl]-L-phenylalanine]",50.8,6.05,66.8,5.62,,,"LD50 (mg/kg) ([2]; mouse, in vivo): > 4,000 mg/kg"
"O=C(COc1ccccc1)N[C@@H](Cc1ccccc1)C(=O)O [Sample S-5, N-phenoxyacetyl-L-phenylalanine]",,,,,,,"Decrease in Blood Glucose (%) [1, 6]: 57.9%; Degree of Elevation of Blood Insulin [1, 6]: 88.5; Decrease in Blood Glucose (%) [1, 7]: 33.5%; Degree of Elevation of Blood Insulin [1, 7]: 18.0; LD50 (mg/kg) ([2]; mouse, in vivo): > 4,000 mg/kg"
CC(=O)N[C@@H](Cc1ccccc1)C(=O)O [N-acetylphenylalanine],,,,,,,usefulness as the absorption promoter [3]: not useful as the absorption promoter
N[C@@H](Cc1ccccc1)C(=O)O [Phenylalanine],,,,,,,usefulness as the absorption promoter [3]: not useful as the absorption promoter
"O=C(N[C@@H](Cc1ccccc1)C(=O)O)OCc1ccccc1 [Sample S-15, N-benzyloxycarbonyl-L-phenylalanine]",,,,,37.5,60.7,"Degree of Elevation of Blood Insulin [1, 8]: 3.43; Degree of Elevation of Blood Insulin [1, 9]: 2.36; LD50 (mg/kg) [2, 10]: > 2,750 mg/kg"
"O=C(N[C@H](Cc1ccccc1)C(=O)O)OCc1ccccc1 [Sample S-18, N-benzyloxycarbonyl-D-phenylalanine]",52.3,6.79,67.2,10.6,,,"LD50 (mg/kg) [2, 10]: > 4,000 mg/kg"
"O=C(COc1cccc2ccccc12)N[C@@H](Cc1ccccc1)C(=O)O [Sample S-11, N-[(1-naphthoxy)acetyl]-L-phenylalanine]",54.0,11.8,59.7,5.07,,,"LD50 (mg/kg) ([2]; mouse, in vivo): > 4,000 mg/kg"
"O=C(N[C@@H](Cc1ccc(OC(=O)OCc2ccccc2)cc1)C(=O)O)OCc1ccccc1 [Sample S-4, N,O-bis-(benzyloxycarbonyl)-L-tyrosine]",,,,,52.7,31.1,"Degree of Elevation of Blood Insulin [1, 8]: 6.54; Degree of Elevation of Blood Insulin [1, 9]: 2.04"
"O=C(C=Cc1ccccc1)N[C@@H](Cc1ccccc1)C(=O)O [Sample S-3, N-cinnamoyl-L-phenylalanine]",84.4,34.2,84.3,68.1,,,"LD50 (mg/kg) ([2]; mouse, in vivo): > 2,500 mg/kg"
"O=C(N[C@@H](Cc1ccccc1)C(=O)N[C@@H](Cc1ccccc1)C(=O)O)OCc1ccccc1 [Sample S-7, N-benzyloxycarbonyl-L-phenylalanyl-L-phenylalanine] (Cbz-Phe-Phe-OH)",,,,,70.0,40.6,"Degree of Elevation of Blood Insulin [1, 8]: 7.72; Degree of Elevation of Blood Insulin [1, 9]: 9.35; LD50 (mg/kg) [2, 10]: > 3,000 mg/kg"
"Cc1ccc(S(=O)(=O)N[C@@H](Cc2ccccc2)C(=O)O)cc1 [Sample S-33, N-(4-toluenesulfonyl)-L-phenylalanine]",51.6,18.1,21.4,6.48,,,
"O=C(C=Cc1cccc(C(F)(F)F)c1)N[C@@H](Cc1ccccc1)C(=O)O [Sample S-30, N-(3-trifluoromethylcinnamoyl)-L-phenylalanine]",,,,,48.8,44.4,
"O=C(COc1ccccc1)N[C@H](Cc1ccccc1)C(=O)O [Sample S-9, N-phenoxyacetyl-D-phenylalanine]",,,,,37.3,29.7,"Degree of Elevation of Blood Insulin [1, 8]: 11.8; Degree of Elevation of Blood Insulin [1, 9]: 2.67"
"O=C(N[C@@H](Cc1ccc(O)cc1)C(=O)O)OCc1ccccc1 [Sample S-16, N-benzyloxycarbonyl-L-tyrosine]",31.0,50.0,,2.99,,,"Decrease in Blood Glucose (%) ([1]; po, 6 mg, 1 h): 27.2%"
"O=C(COc1ccc(Cl)cc1)N[C@@H](Cc1ccccc1)C(=O)O [Sample S-13, N-[(4-chlorophenoxy)acetyl]-L-phenylalanine]",,,,,,,"Decrease in Blood Glucose (%) [1, 11]: 31.9%; Degree of Elevation of Blood Insulin [1, 11]: 43.4; Decrease in Blood Glucose (%) [1, 12]: 18.5%; Degree of Elevation of Blood Insulin [1, 12]: 9.82; LD50 (mg/kg) ([2]; mouse, in vivo): > 3,500 mg/kg"
"O=C(N[C@@H](Cc1ccccc1)C(=O)O)C(F)=Cc1ccccc1 [Sample S-31, N-(α-fluorocinnamoyl)-L-phenylalanine]",,,,,33.5,72.5,
"O=C(CCCc1ccccc1)N[C@@H](Cc1ccccc1)C(=O)O [Sample S-8, N-(4-phenylbutyrol)-L-phenylalanine]",57.1,7.31,35.6,9.64,,,
"O=C(N[C@@H](Cc1ccccc1)C(=O)N[C@H](Cc1ccccc1)C(=O)O)OCc1ccccc1 [Sample S-21, N-benzyloxycarbonyl-L-phenylalanyl-D-phenylalanine] (Cbz-Phe-[dF]-OH)",42.6,14.9,32.7,5.26,,,
"O=C(N[C@@H](Cc1ccccc1)C(=O)N[C@@H](Cc1ccc(O)cc1)C(=O)O)OCc1ccccc1 [Sample S-10, N-benzyloxycarbonyl-L-phenylalanyl-L-tyrosine] (Cbz-Phe-Tyr-OH)",61.5,41.9,43.4,4.85,,,"LD50 (mg/kg) [2, 10]: > 3,000 mg/kg"
"COc1cccc(C=CC(=O)N[C@@H](Cc2ccccc2)C(=O)N[C@@H](Cc2ccccc2)C(=O)O)c1 [Sample S-32, N-(3-methoxycinnamoyl)-L-phenylalanyl-L-phenylalanine]",,,,,,23.8,"Degree of Elevation of Blood Insulin [1, 9]: 4.55"
"COc1ccc(COC(=O)N[C@@H](Cc2ccccc2)C(=O)O)cc1 [Sample S-17, N-(4-methoxybenzyloxycarbonyl)-L-phenylalanine]",,,,,64.8,50.6,"Degree of Elevation of Blood Insulin [1, 8]: 14.4; Degree of Elevation of Blood Insulin [1, 9]: 21.2; LD50 [2, 10]: 750 mg/kg"
"O=C(COc1ccc([N+](=O)[O-])cc1)NC(Cc1ccc([N+](=O)[O-])cc1)C(=O)O (racemic) [Sample S-2, N-[(4-nitrophenoxy)acetyl]-4-nitro-DL-phenylalanine]",23.2,> 119,60.0,89.7,,,
